In assay [1] the test system is ABIL (ammonia-binding liquid inoculum), nitrifying microbial enrichment containing both AOA and AOB. In words: Nitrification inhibition assay on ABIL (ammonium consumption). Format: cell-based. Conditions: 10 µM compound.
Assay [2] has as its system Nitrososphaera viennensis. In words: Nitrification inhibition assay on Nitrososphaera viennensis (nitrite, Griess). Format: cell-based, Nitrososphaera viennensis EN76T. Conditions: for activity at 2.5 µM: Nitrososphaera viennensis, 2.5 µM compound, structural variants outside formula (I), read-out: Relative nitrification (%) by Nitrososphaera viennensis treated with 2.5 µM compound. How it is done: Nitrite (NO2—) was measured using the Griess reagent (Product number: G4410, Griess reagent (modified), Sigma-Aldrich). Equal volumes of the sample or a diluted sample and the Griess reagent were mixed a transparent flat bottom multi-well plate and incubated in the dark at room temperature for 10 minutes. Absorbance values at 540 nm were measured spectrophotometrically (EnVision, Perkin Elmer®) and used to calculate the [NO2—] by use of a standard curve.
A liquid culture sample of Nitrososphaera viennensis EN76T was kindly supplied by prof. dr. Christa Schleper (University of Vienna). Cells were grown in fresh water medium (FWM) as described earlier by Tourna et al. (2011). All necessary materials were rinsed with 1 % HCl and washed at least 3 times with MilliQ water. FWM (pH 7.5 (KOH)) contained 17 mM NaCl, 3 mM MgCl2 × 2 H2O, 680 µM CaCl2 × 2 H2O, 1.47 mM KH2PO4 and 6.71 mM KCI. After autoclaving, successively 1 mL non-chelated trace element mixture (101 mM HCl, 488 µM H3BO3, 508 µM MnCl2 × 4 H2O, 803 µM CoCl2 × 6 H2O, 101 µM NiCl2 × 6 H2O, 12 µM CuCl2 × 2 H2O, 503 µM ZnSO4 × 7 H2O and 150 µM Na2MoO4 × 2 H2O), 1 mL Fe-NaEDTA (7.5 mM), 1 mL vitamin solution (20 mg/L biotin, 20 mg/L folic acid, 100 mg/L pyridoxine-HCl, 50 mg/L thiamine-HCl, 50 mg/L riboflavin, 50 mg/L nicotinic acid, 50 mg/L DL-pantothenic acid, 50 mg/L P-aminobenzoic acid, 2 g/L choline chloride and 10 mg/L vitamin B12), 2 mL NaHCO3 (1 M), 2 mL kanamycin (100 mg/mL), 2 mL carbenicillin (100 mg/mL), 3 mL NH4Cl (1 M), 10 mL HEPES buffer (1 M, pH 7.6) and 1 mL Na-pyruvate (0.1 M) were added aseptically. All stock-solutions were filter-sterilized, except the autoclaved non-chelated trace element mixture. Cultures were incubated aerobically at 42° C. without shaking in sterile 250-mL Erlenmeyer flasks or 30-mL cultivation tubes (Product number: 216-1290, Quickstart universal containers STERILIN®, VWR) filled with either 100 or 20 mL FWM and sealed with tape (Micropore™ Surgical Tape 1530-1, 3M™). Late-log phase cultures ([NO2-] ≥ 1 mM) were subcultivated by dilution (1:400) in fresh FWM.
7-day old 100 mL cultures grown in 250-mL Erlenmeyer flasks with a [NO2-] ≥ 1 mM were 5 times overconcentrated in fresh FWM by centrifugation (4000 rpm, 15 min, 5° C.) in 50 mL centrifuge tubes (Cat. No. 430829, CentriStar™ Conical Centrifuge Tubes, Corning®). Per batch, all the cultures were pooled in one sterile Schott bottle. Subsequently, 200 µl/well was dispensed at low pipetting speed in transparent flat bottom 96-well plates (Cat. No. 353072, Falcon® 96 Well Clear Microplate, Corning®) using 150 µl wide-bore tips (two steps of 100 µl) on a Tecan robot (Freedom EVO®, Tecan). 0.5 µl of 99.99 % DMSO (negative control - final concentration 0.25%) and 0.5 µl of 0.04 M PTIO (2-phenyl-4,4,5,5-tetramethylimidazoline-1-oxyl 3-oxide, positive control - final concentration 100 µM) were added manually to the first and last column respectively. Finally, 0.5 µl of candidate nitrification inhibitors (1 mM stock solutions in 99.99% DMSO - final concentration 2.5 µM) were added to the central wells using a pin tool on a Tecan robot (Freedom EVO®, Tecan). In between additions, the pins were washed in sequence with 99.5% DMSO, MilliQ water and 100% ethanol and air-dried. All plates were sealed with tape (Micropore™ Surgical Tape 1530-1, 3M™), stacked per 4 on top of a 96-well plate filled with 100 µl MilliQ per well and covered with aluminum foil. Position effects of the stacks within the incubator were considered. Plates were incubated at 42° C. without shaking. 24 h later, NO2— was measured spectrophotometrically at 540 nm (EnVision, Perkin Elmer®). […]
Background: The Griess reaction detects nitrite, a stable product of nitric oxide.

Setting [3] is: structural variants outside formula (I), read-out: Relative nitrification (%) by ABIL treated with 10 µM compound.

We go through 39 compounds from patent publication US20230357099A1, “PYRAZOLO [3,4-B] PYRIDINE-4-CARBOXAMIDE NITRIFICATION INHIBITOR” (EUROCHEM ANTWERPTEN, priority 2020, published 2023).

Read-outs that look alike come from different tables or passages of the source.

With `CC(O)CCN(C)S(=O)(=O)c1ccc2cn[nH]c2c1` (centres unmarked) [Example 108], the activity at 10 µM in assay [1] (setting [3]) is 97%. For the same compound, in assay [2], the activity at 2.5 µM stood at 100%.
On to `COc1ccccc1CN(C)C(=O)c1cc2cnn(C(C)C)c2nc1C` [Example 93], for which the activity at 10 µM in assay [1] (setting [3]) is 100%. Moreover, the activity at 2.5 µM in assay [2] was 100%.
With `CC(C)n1ncc2cc(C(=O)N(C)Cc3nc4ccccc4s3)cnc21` [Example 85], the activity at 10 µM in assay [1] (setting [3]) amounted to 100%. Moreover, the activity at 2.5 µM in assay [2] was 100%.
As to `Cc1nn(C)c2ncc(NC(=O)CCC3CCCO3)cc12` (centres unmarked) [Example 76], the activity at 10 µM in assay [1] (setting [3]) was found to be 100%. Moreover, in assay [2], the activity at 2.5 µM came out at 100%.
For the compound `Cc1ccc2[nH]nc(C(=O)N3CCS(=O)(=O)C(C)(C)C3)c2c1` [Example 104], the activity at 10 µM in assay [1] (setting [3]) was 93%. Besides, the activity at 2.5 µM in assay [2] came to 100%.
The corresponding values for `CC1(C)CN(C(=O)c2n[nH]c3ccccc23)CC[S+]1[O-]` (centres unmarked) [Example 157] are 100% and 94%.
Take `COCCCCCNC(=O)Nc1ccc2[nH]ncc2c1` [Example 128]: the activity at 10 µM in assay [1] (setting [3]) came to 100%. Moreover, in assay [2], the activity at 2.5 µM worked out at 100%.
Regarding `COC(=O)c1n[nH]c2ccc(NS(=O)(=O)c3ccc(Cl)c(Cl)c3)cc12` [Example 101], the activity at 10 µM in assay [1] (setting [3]) stood at 90%. Further, the activity at 2.5 µM in assay [2] was determined as 94%.
Turning to `CC(C)n1ncc2cc(CN(C)C3CCSC3)cnc21` (centres unmarked) [Example 38], the activity at 10 µM in assay [1] (setting [3]) was determined as 97%. Moreover, the activity at 2.5 µM in assay [2] amounted to 99%.
In the same order, the values of `CCOc1cc(C(=O)Nc2cnc3c(cnn3C(C)C)c2)c([N+](=O)[O-])cc1OC` [Example 73] are 100% and 93%.
The corresponding values for `CCOc1ccc(CN(CC)C(=O)c2n[nH]c3ccccc23)cc1OC` [Example 163] are 100% and 99%.
The corresponding values for `CCN(Cc1nc2ccccc2c(=O)[nH]1)C(=O)CCc1c(C)nc2c(cnn2C(C)C)c1C` [Example 92] are 100% and 100%.
On to `Cc1nc2c(c(C)nn2C)c(C)c1CCC(=O)N1CCOCC1C` (centres unmarked) [Example 75], for which the activity at 10 µM in assay [1] (setting [3]) amounted to 100%. Besides, the activity at 2.5 µM in assay [2] was found to be 100%.
In the case of `CC(C)n1ncc2cc(C(=O)Nc3ccc(F)cc3F)cnc21` [Example 33], the activity at 10 µM in assay [1] (setting [3]) turned out to be 94%. In addition, the activity at 2.5 µM in assay [2] amounted to 100%.
The corresponding values for `O=C(O)CC1CSCCN1C(=O)c1cccc2cn[nH]c12` (centres unmarked) [Example 114] are 98% and 100%.
On to `Cc1nc2c(c(C)nn2C)c(C)c1CCC(=O)NC(C)C1CCCO1` (centres unmarked) [Example 57], for which the activity at 10 µM in assay [1] (setting [3]) turned out to be 100%. Further, the activity at 2.5 µM in assay [2] came to 97%.
In the same order, the values of `CCCc1nnc(NCc2cccc3cn[nH]c23)o1` [Example 151] are 100% and 94%.
Turning to `CCC(CC)CN(CC)C(=O)c1cnc2c(c1)c(C)nn2C` [Example 54], the activity at 10 µM in assay [1] (setting [3]) was 100%. Besides, in assay [2], the activity at 2.5 µM worked out at 96%.
The corresponding values for `Cc1n[nH]c2nc(C(F)(F)F)cc(C(F)(F)F)c12` [Example 20] are 90% and 100%.
As to `Cc1ccc2[nH]nc(C(=O)N3CC[S+]([O-])C(C)(C)C3)c2c1` (centres unmarked) [Example 109], in assay [1] (setting [3]), the activity at 10 µM came to 97%. Further, the activity at 2.5 µM in assay [2] stood at 100%.
The corresponding values for `Cc1nc2c(c(C)nn2C)c(C)c1CCC(=O)N1CC(C)OC(C)C1` (centres unmarked) [Example 46] are 99% and 90%.
The corresponding values for `Clc1ccc2c(Nc3ccc4[nH]ncc4c3)ncnc2c1` [Example 99] are 90% and 100%.
In the same order, the values of `CCC(CC)c1nnc(NC(=O)c2n[nH]c3ccccc23)s1` [Example 103] are 91% and 100%.
`CC(Oc1ccc(Br)cc1)C(=O)Nc1cnc2c(cnn2C(C)C)c1` (centres unmarked) [Example 22]: the activity at 10 µM in assay [1] (setting [3]) was 90%. Moreover, the activity at 2.5 µM in assay [2] worked out at 100%.
The corresponding values for `Cc1nc2c(c(C)nn2C)c(C)c1CCC(=O)Nc1ccccc1C(=O)O` [Example 77] are 100% and 100%.
The corresponding values for `CCc1nnc(NC(=O)c2cnc3c(cnn3C(C)C)c2)s1` [Example 24] are 91% and 100%.
In the same order, the values of `Fc1cccnc1N1CCC(NCc2cccc3cn[nH]c23)C1` (centres unmarked) [Example 112] are 98% and 100%.
Consider `O=C(c1n[nH]c2ccccc12)N1CCc2ccc(F)cc21` [Example 141], for which the activity at 10 µM in assay [1] (setting [3]) was 100%. Besides, the activity at 2.5 µM in assay [2] was 93%.
The corresponding values for `CC(C)n1ncc2cc(NC(=O)CCS(=O)(=O)c3ccc(Cl)cc3)cnc21` [Example 28] are 92% and 100%.
Consider `Cc1nn(-c2ccc(F)cc2)c2nc3c(cc12)C(=O)CC(C)(C)C3` [Example 72], for which the activity at 10 µM in assay [1] (setting [3]) was 100%. In addition, in assay [2], the activity at 2.5 µM was determined as 99%.
Regarding `COCCn1ncc2ccc(NS(=O)(=O)c3ccc4c(c3)CCC4)cc21` [Example 144], in assay [1] (setting [3]), the activity at 10 µM came to 100%. Further, in assay [2], the activity at 2.5 µM is 100%.
Turning to `COc1ccc(OCCC(=O)Nc2n[nH]c3ccccc23)cc1` [Example 121], the activity at 10 µM in assay [1] (setting [3]) is 100%. For the same compound, in assay [2], the activity at 2.5 µM turned out to be 100%.
On to `CC(C)n1ncc2cc(CNc3ccc4[nH]ncc4c3)cnc21` [Example 94], for which the activity at 10 µM in assay [1] (setting [3]) was 92%. Moreover, the activity at 2.5 µM in assay [2] came to 100%.
In the same order, the values of `Cc1nc2c(cnn2C(C)C)cc1C(=O)NC(C)C1CCCO1` (centres unmarked) [Example 90] are 100% and 93%.
The corresponding values for `O=S(=O)(Nc1cccc2cn[nH]c12)N1CCCCC1` [Example 149] are 100% and 100%.
In the same order, the values of `Cc1nn(C)c2ncc(CNCCCN3CCc4ccccc43)cc12` [Example 37] are 97% and 100%.
As to `Cc1cc(C)c2c(OCC(=O)N(CC(F)F)C3CC3)nn(C)c2n1` [Example 67], the activity at 10 µM in assay [1] (setting [3]) is 100%. Also, the activity at 2.5 µM in assay [2] stood at 100%.
Consider `C#CCOCCC(=O)Nc1n[nH]c2c(Cl)cccc12` [Example 120], for which the activity at 10 µM in assay [1] (setting [3]) was 100%. Moreover, the activity at 2.5 µM in assay [2] stood at 98%.
On to `COCCNC(=O)c1cc(-c2ccc(C)cc2)nc2c1cnn2C(C)C` [Example 1], for which the activity at 10 µM in assay [1] (24 h, 24 h, 0% = as strong as 100 µM PTIO, 100% = no inhibition, read-out: ABIL - relative nitrification (%) at 10 µM) is -9%. In addition, the “N. viennensis - relative nitrification (%) at 0.5 µM” value in assay [2] (0.5 µM compound, 0% = as strong as 100 µM PTIO, 100% = no inhibition) came out at 52%. Moreover, in assay [2] (5 µM compound, 0% = as strong as 100 µM PTIO, 100% = no inhibition), the “N. viennensis - relative nitrification (%) at 5 µM” value came to 0%. For the same compound, the “N. viennensis - relative nitrification (%) at 25 µM” value in assay [2] (25 µM compound, 0% = as strong as 100 µM PTIO, 100% = no inhibition) was found to be 0%.
